Where a name gives a salt, the structure may show the parent alone.
Columns and labels:
[1] = tested on: extracellular 5-HT in nucleus accumbens; format: in vivo, rat; conditions: 6 mg/kg i.p.; for persistent elevation of extracellular 5-HT for the duration of sampling: 4 doses every 2 h, 8 h sampling, % of basal; for extracellular 5-HT after the first dose: first of 4 doses, nucleus accumbens dialysate
[2] = tested on: extracellular dopamine in nucleus accumbens; assay: In vivo microdialysis in rat nucleus accumbens, dialysate dopamine; conditions: 6 mg/kg i.p., 4 doses; not different from saline in post hoc tests
SERT = SERT (Rattus norvegicus, UniProt P31652); assay: In vitro [3H]5-HT release from rat brain synaptosomes; format: biochemical
Sequence of SERT (P31652 whole entry): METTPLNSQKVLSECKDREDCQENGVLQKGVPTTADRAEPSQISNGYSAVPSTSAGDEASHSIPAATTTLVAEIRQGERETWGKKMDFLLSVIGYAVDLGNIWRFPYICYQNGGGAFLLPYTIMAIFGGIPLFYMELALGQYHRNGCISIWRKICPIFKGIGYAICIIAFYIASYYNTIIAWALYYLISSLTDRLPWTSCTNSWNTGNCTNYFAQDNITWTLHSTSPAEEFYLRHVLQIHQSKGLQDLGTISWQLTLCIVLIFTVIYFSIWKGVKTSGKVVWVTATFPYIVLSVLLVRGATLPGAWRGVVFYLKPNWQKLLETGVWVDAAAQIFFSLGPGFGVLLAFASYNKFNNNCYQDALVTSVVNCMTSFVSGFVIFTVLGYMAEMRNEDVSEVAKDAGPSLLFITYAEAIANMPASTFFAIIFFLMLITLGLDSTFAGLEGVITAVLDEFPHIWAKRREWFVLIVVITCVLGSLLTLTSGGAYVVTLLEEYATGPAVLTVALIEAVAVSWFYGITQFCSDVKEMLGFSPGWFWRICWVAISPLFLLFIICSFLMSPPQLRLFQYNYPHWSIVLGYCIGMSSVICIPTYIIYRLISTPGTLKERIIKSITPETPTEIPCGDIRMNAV

hSERT = hSERT (Homo sapiens, UniProt P31645); assay: cell-based; format: cell-based; conditions: for concentration at which maximal current was measured: bell-shaped concentration-response curve; for inwardly-directed current compared to 5-HT-induced current: raw current traces, reference 10 μM 5-HT
Sequence of hSERT (P31645 whole entry): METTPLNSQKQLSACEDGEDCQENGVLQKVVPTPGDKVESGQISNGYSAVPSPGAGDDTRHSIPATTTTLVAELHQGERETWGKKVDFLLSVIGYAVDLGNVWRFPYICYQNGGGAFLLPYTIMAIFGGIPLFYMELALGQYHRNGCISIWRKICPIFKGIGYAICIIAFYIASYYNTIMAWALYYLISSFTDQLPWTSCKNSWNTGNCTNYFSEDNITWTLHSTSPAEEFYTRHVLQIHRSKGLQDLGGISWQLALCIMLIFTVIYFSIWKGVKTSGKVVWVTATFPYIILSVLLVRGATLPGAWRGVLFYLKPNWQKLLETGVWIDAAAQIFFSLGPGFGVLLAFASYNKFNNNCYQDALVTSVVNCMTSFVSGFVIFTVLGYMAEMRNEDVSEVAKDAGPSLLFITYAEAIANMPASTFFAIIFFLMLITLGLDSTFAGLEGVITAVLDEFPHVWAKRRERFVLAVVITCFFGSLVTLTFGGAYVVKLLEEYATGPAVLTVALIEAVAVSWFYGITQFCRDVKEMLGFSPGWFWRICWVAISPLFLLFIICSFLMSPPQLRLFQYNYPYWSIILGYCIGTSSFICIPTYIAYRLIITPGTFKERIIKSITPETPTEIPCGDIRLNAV

[3] = tested on: [3H]dopamine release, rat caudate synaptosomes; assay: In vitro [3H]dopamine release from rat caudate synaptosomes; format: biochemical; conditions: tested at concentrations up to 10 μM (data not shown)

SMILES	persistent elevation of extracellular 5-HT for the duration of sampling [1]	extracellular 5-HT after the first dose [1]	dialysate dopamine [2]	Emax of 5-HT release (SERT) [%]	concentration at which maximal current was measured (hSERT; hSERT-expressing oocytes) [µM]	current magnitude relative to mCPP, TFMPP or MTA (hSERT; maximal currents, hSERT-expressing oocytes)	inwardly-directed current compared to 5-HT-induced current (hSERT)	releasing [3H]dopamine [3]	EC50 (hSERT) [µM]
CCNC(C)Cc1cccc(C(F)(F)F)c1 (racemic) [fenfluramine, (±)-N-ethyl-1-[3-(trifluoromethyl)phenyl]propan-2-amine hydrochloride]	500-800%	~1200 % of basal	about 150 % of basal	–	–	–	–	–	–
CC(N)Cc1cccc(C(F)(F)F)c1.Cl (single isomer, unassigned; (+)) [d-norfenfluramine, (+)-1-[3-(trifluoromethyl)phenyl]propan-2-amine hydrochloride]	–	–	–	100	100	up to 2 times	almost as high as the 5-HT-induced current	–	–
CSc1ccc(CC(C)N)cc1.CSc1ccc(C[C@@H](C)N)cc1 [MTA, 4-Methylthioamphetamine ((2R)-1-[4-(methylsulfanyl)phenyl]propan-2-amine)]	–	–	–	–	3	–	comparably small current	–	–
Cl.FC(F)(F)c1cccc(N2CCNCC2)c1 [TFMPP, 1-(3-trifluoromethylphenyl)piperazine hydrochloride]	–	about 1400 % of basal	80 % of basal	–	3	–	about half the 5-HT-induced current	inactive	2.43
CCN[C@@H](C)Cc1cccc(C(F)(F)F)c1 [d-fenfluramine, (+)-N-ethyl-1-[3-(trifluoromethyl)phenyl]propan-2-amine hydrochloride]	–	~1200 % of basal	–	–	–	–	–	inactive	–
Cl.Cl.Clc1cccc(N2CCNCC2)c1 [mCPP, 1-(3-Chlorophenyl)piperazine dihydrochloride]	about 500%	about 1000 % of basal	150 % of basal	–	3	–	about half the 5-HT-induced current	inactive	1.94
